# Assay results published in US11253497B2, “Use of derivatives of polyunsaturated fatty acids as medicaments” (Lipopharma Therapeutics, S.L., priority 2009, dated 2022).
# What was measured:
# [1] = system: lung cancer cells A549; experiment: Growth of lung cancer cells A549 (IC50); type: cell-based, human; conditions: 72 hours of incubation
# Description: (§1) For the experiments shown in FIG. 1, cultured human Non Small Cell Lung Cancer cells (A549) in RPMI 1640 were used, supplemented with 10% foetal bovine serum and antibiotics, at 37° C. and 5% CO2. […] After treatment, cell count was performed and the study of the mechanisms involved in the antitumor activity of compounds was evaluated by flow cytometry. […] These values correspond to averages of three independent experiments.
# (§2) These charts show the antitumor efficacy of the compounds of this invention against the growth of breast cancer cells, brain (glioma), and lung cancer. […] The other experimental conditions are identical to those described in the preceding paragraph.
# [2] = system: breast cancer cells MDA-MB-231; experiment: Growth of breast cancer cells MDA-MB-231; type: cell-based; conditions: 72 hours of incubation
# Description: as §1, §2
# [3] = system: brain cancer cell (glioma) U118; experiment: Brain cancer (glioma) U118 cell growth; type: cell-based; conditions: 72 hours of incubation
# Description: For the experiments shown in FIG. 1, cultured human Non Small Cell Lung Cancer cells (A549) in RPMI 1640 were used, supplemented with 10% foetal bovine serum and antibiotics, at 37° C. and 5% CO2. Cells were maintained in culture for 48 hours in the presence or absence of D-PUFAs and PUFAs indicated in Table 2 at a concentration of 250 µM. After treatment, cell count was performed and the study of the mechanisms involved in the antitumor activity of compounds was evaluated by flow cytometry. […] These values correspond to averages of three independent experiments.
# as §2
# [4] = Lamellar-to-hexagonal (HII) transition temperature in DEPE model membranes by Differential Scanning Calorimetry; type: physicochemical; conditions: DEPE membranes, DEPE:D-PUFA 10:1 (mol:mol)
# Description: The transition temperature was determined by Differential Scanning Calorimetry. The proportion DEPE:D-PUFA was 10:1 (mol:mol) in all cases. Lamellar-to-hexagonal transition is an important parameter that reflects relevant signalling properties of cell membranes. […] When this occurs, certain peripheral membrane proteins (such as G proteins, protein kinase C or Ras protein) can more easily bind to the membrane, while others have a poor interaction (e.g., the Gα-protein), so changes in the HII transition temperature are important in regulating cellular functions related to health and human therapy (Escriba et al., 1995, Vogler et al., 2004; Escriba, 2006).
# Control values correspond to model membranes in the absence of fatty acids. The reduction in HII transition temperature obtained by using the D-PUFA of the invention indicates an increased induction of membrane discontinuities, generating anchoring sites in the membrane for peripheral proteins and leads to better regulation of cell signalling and, therefore, greater effectiveness in the control of certain diseases.
SMILES,IC50 [1],IC50 [2],IC50 [3],Temperature of lamellar-to-hexagonal transition [4]
CCCCCC=CCC=CCCCCCCC(O)C(=O)O (stereo not drawn) [182C1],635 µM,386 µM,208 µM,–
CCCCCC=CCC=CCCCCCCC(O)C(=O)OCC (stereo not drawn) [182E1],387 µM,289 µM,213 µM,50.6 °C
CCCCCC=CCC=CCCCCCCC(Cl)C(=O)OCC (stereo not drawn) [182O1],452 µM,286 µM,–,51.7 °C
CCCCCC=CCC=CCCCCCCC(CO)C(=O)OCC (stereo not drawn) [182Q1],293 µM,328 µM,–,–
CCCCCC=CCC=CCCCCCCC(OP(=O)(OCC)OCC)C(=O)OCC (stereo not drawn) [182R1],317 µM,371 µM,255 µM,52.2 °C
CCCCCC=CCC=CCCCCCCC(F)C(=O)OCC (stereo not drawn) [182T1],379 µM,391 µM,214 µM,–
CCCCCC=CCC=CCCCCCCC(C(=O)OCC)N(OCC)OCC (stereo not drawn) [182W1],416 µM,391 µM,246 µM,–
CCC=CCC=CCC=CCCCCCCC(O)C(=O)O (stereo not drawn) [183C1],281 µM,289 µM,–,–
CCCCCC=CCC=CCC=CCCCC(O)C(=O)O (stereo not drawn) [183C2],241 µM,168 µM,379 µM,–
CCCCCC=CCC=CCC=CCCCC(C(=O)OCC)N(OCC)OCC (stereo not drawn) [183W2],212 µM,203 µM,438 µM,–
CCCCCC=CCC=CCC=CCC=CCCC(O)C(=O)O (stereo not drawn) [204C1],521 µM,389 µM,287 µM,–
CCCCCC=CCC=CCC=CCC=CCCC(OC)C(=O)OCC (stereo not drawn) [204I1],459 µM,315 µM,328 µM,–
CCCCCC=CCC=CCC=CCC=CCCC(Cl)C(=O)OCC (stereo not drawn) [204O1],461 µM,298 µM,–,49.7 °C
CCCCCC=CCC=CCC=CCC=CCCC(CO)C(=O)OCC (stereo not drawn) [204Q1],348 µM,306 µM,324 µM,–
CCCCCC=CCC=CCC=CCC=CCCC(F)C(=O)OCC (stereo not drawn) [204T1],352 µM,317 µM,385 µM,–
CCCCCC=CCC=CCC=CCC=CCCC(C(=O)OCC)N(OCC)OCC (stereo not drawn) [204W1],341 µM,311 µM,287 µM,–
CCC=CCC=CCC=CCC=CCC=CCCC(O)C(=O)O (stereo not drawn) [205C1],325 µM,223 µM,442 µM,–
CCC=CCC=CCC=CCC=CCC=CCCC(OC)C(=O)OCC (stereo not drawn) [205I1],351 µM,261 µM,510 µM,–
CCC=CCC=CCC=CCC=CCC=CCCC(C)C(=O)OC (stereo not drawn) [205M1],293 µM,216 µM,462 µM,–
CCC=CCC=CCC=CCC=CCC=CCCC(Cl)C(=O)OCC (stereo not drawn) [205O1],418 µM,264 µM,–,48.6 °C
CCC=CCC=CCC=CCC=CCC=CCCC(CO)C(=O)OCC (stereo not drawn) [205Q1],365 µM,247 µM,419 µM,–
CCC=CCC=CCC=CCC=CCC=CCCC(F)C(=O)OCC (stereo not drawn) [205T1],322 µM,233 µM,427 µM,–
CCC=CCC=CCC=CCC=CCC=CCCC(C(=O)OCC)N(OCC)OCC (stereo not drawn) [205W1],420 µM,256 µM,443 µM,–
CCC=CCC=CCC=CCC=CCC=CCC=CCC(O)C(=O)O (stereo not drawn) [226C1],214 µM,210 µM,237 µM,–
CCC=CCC=CCC=CCC=CCC=CCC=CCC(OC)C(=O)OC (stereo not drawn) [226H1],247 µM,199 µM,294 µM,–
CCC=CCC=CCC=CCC=CCC=CCC=CCC(OC)C(=O)OCC (stereo not drawn) [226I1],298 µM,241 µM,327 µM,–
CCC=CCC=CCC=CCC=CCC=CCC=CCC(C)C(=O)OC (stereo not drawn) [226M1],208 µM,267 µM,306 µM,–
CCC=CCC=CCC=CCC=CCC=CCC=CCC(CO)C(=O)OCC (stereo not drawn) [226Q1],252 µM,263 µM,254 µM,–
CCC=CCC=CCC=CCC=CCC=CCC=CCC(F)C(=O)OCC (stereo not drawn) [226T1],243 µM,199 µM,263 µM,–

# More lines, now with the values ahead:
IC50 [1],IC50 [2],IC50 [3],Temperature of lamellar-to-hexagonal transition [4],SMILES
541 µM,277 µM,221 µM,51 °C,CCCCCC=CCC=CCCCCCCC(O)C(=O)OC (stereo not drawn) [182D1]
439 µM,378 µM,205 µM,51 °C,CCCCCC=CCC=CCCCCCCC(OC)C(=O)O (stereo not drawn) [182G1]
462 µM,402 µM,267 µM,–,CCCCCC=CCC=CCCCCCCC(OC)C(=O)OC (stereo not drawn) [182H1]
673 µM,411 µM,240 µM,–,CCCCCC=CCC=CCCCCCCC(OC)C(=O)OCC (stereo not drawn) [182I1]
286 µM,362 µM,238 µM,–,CCCCCC=CCC=CCCCCCCC(C)C(=O)OC (stereo not drawn) [182M1]
255 µM,410 µM,212 µM,–,CCCCCC=CCC=CCCCCCCC(OC=O)C(=O)OC (stereo not drawn) [182U1]
326 µM,245 µM,–,51.1 °C,CCC=CCC=CCC=CCCCCCCC(O)C(=O)OC (stereo not drawn) [183D1]
267 µM,175 µM,385 µM,49.4 °C,CCCCCC=CCC=CCC=CCCCC(O)C(=O)OC (stereo not drawn) [183D2]
294 µM,319 µM,–,49.8 °C,CCC=CCC=CCC=CCCCCCCC(O)C(=O)OCC (stereo not drawn) [183E1]
243 µM,193 µM,–,49.3 °C,CCCCCC=CCC=CCC=CCCCC(O)C(=O)OCC (stereo not drawn) [183E2]
273 µM,364 µM,329 µM,50.3 °C,CCC=CCC=CCC=CCCCCCCC(OC)C(=O)O (stereo not drawn) [183G1]
319 µM,308 µM,408 µM,–,CCC=CCC=CCC=CCCCCCCC(OC)C(=O)OC (stereo not drawn) [183H1]
219 µM,170 µM,443 µM,–,CCCCCC=CCC=CCC=CCCCC(OC)C(=O)OC (stereo not drawn) [183H2]
348 µM,274 µM,321 µM,–,CCC=CCC=CCC=CCCCCCCC(OC)C(=O)OCC (stereo not drawn) [183I1]
276 µM,210 µM,432 µM,–,CCCCCC=CCC=CCC=CCCCC(OC)C(=O)OCC (stereo not drawn) [183I2]
322 µM,407 µM,349 µM,–,CCC=CCC=CCC=CCCCCCCC(C)C(=O)OC (stereo not drawn) [183M1]

IC50 [1],IC50 [2],IC50 [3],Temperature of lamellar-to-hexagonal transition [4],SMILES
248 µM,164 µM,407 µM,–,CCCCCC=CCC=CCC=CCCCC(C)C(=O)OC (stereo not drawn) [183M2]
318 µM,217 µM,–,51.3 °C,CCCCCC=CCC=CCC=CCCCC(Cl)C(=O)OCC (stereo not drawn) [183O2]
273 µM,312 µM,282 µM,–,CCC=CCC=CCC=CCCCCCCC(CO)C(=O)OCC (stereo not drawn) [183Q1]
314 µM,205 µM,392 µM,–,CCCCCC=CCC=CCC=CCCCC(CO)C(=O)OCC (stereo not drawn) [183Q2]
367 µM,290 µM,368 µM,–,CCC=CCC=CCC=CCCCCCCC(F)C(=O)OCC (stereo not drawn) [183T1]
279 µM,216 µM,423 µM,–,CCCCCC=CCC=CCC=CCCCC(F)C(=O)OCC (stereo not drawn) [183T2]
294 µM,344 µM,343 µM,–,CCC=CCC=CCC=CCCCCCCC(OC=O)C(=O)OC (stereo not drawn) [183U1]
287 µM,228 µM,380 µM,–,CCCCCC=CCC=CCC=CCCCC(OC=O)C(=O)OC (stereo not drawn) [183U2]
352 µM,311 µM,–,–,CCC=CCC=CCC=CCCCCCCC(C(=O)OCC)N(OCC)OCC (stereo not drawn) [183W1]
398 µM,363 µM,263 µM,–,CCCCCC=CCC=CCC=CCC=CCCC(OC)C(=O)OC (stereo not drawn) [204H1]
362 µM,285 µM,296 µM,–,CCCCCC=CCC=CCC=CCC=CCCC(OC(C)=O)C(=O)OC (stereo not drawn) [204J1]
375 µM,321 µM,309 µM,–,CCCCCC=CCC=CCC=CCC=CCCC(C)C(=O)OC (stereo not drawn) [204M1]
270 µM,369 µM,263 µM,–,CCCCCC=CCC=CCC=CCC=CCCC(OC=O)C(=O)OC (stereo not drawn) [204U1]
290 µM,282 µM,439 µM,–,CCC=CCC=CCC=CCC=CCC=CCCC(OC)C(=O)OC (stereo not drawn) [205H1]
426 µM,272 µM,454 µM,–,CCC=CCC=CCC=CCC=CCC=CCCC(OC=O)C(=O)OC (stereo not drawn) [205U1]
